Series [1] can be described thus: In vitro stability in the whole blood. The class given is in vitro ADME, rat. How it is done: (§1) After the anesthetization of rats with an i.p. application of the anesthetic mixture, the cerebrospinal fluid (CSF) was collected by cisternal puncture, followed by the collection of whole blood from the polyethylene cannula inserted into the right femoral artery. The blood was heparinized and centrifuged at 15,000 rpm for 10 min at 4 °C, and the supernatant was collected as plasma.
(§2) ANA-TA9 was dissolved in PBS at a concentration of 0.1 mg/mL or 1 mg/mL. Immediately before the incubation, 5 μL or 10 μL of the ANA-TA9 solution was added to 45 μL or 90 μL of CSF or plasma, respectively. Similarly, 10 μL of the ANA-TA9 solution was added to 90 μL of whole blood. At predetermined times after the incubation at 37 °C, the samples were cooled by placing them on ice. Methanol (1 mL) was added to the plasma and whole blood for deproteinization. The mixtures were then vortexed and centrifuged at 15,000 rpm for 5 min at 4 °C. The supernatant was transferred to tubes and evaporated to dryness. The residue was reconstituted with 100 μL of the mobile phase of LC/MS mentioned below. The concentrations of ANA-TA9 in the plasma and whole blood were measured by LC/MS. The ANA-TA9 concentrations were measured in the CSF samples by LC/MS without any treatments.
Chromatographic separation was performed using a C18 analytical column (TSKgel ODS 100V, 3 μm, 2.0 mm × 100 mm; TOSOH, Tokyo, Japan). The mobile phase was acetonitrile/0.1% acetic acid (10/90), and the flow rate was 0.2 mL/min. ANA-TA9 eluting from the column was detected with mass spectrometry under the positive mode. Nitrogen gas was used for nebulization at a flow rate of 1.5 L/min. Other conditions (temperature and voltage) were set as the default. The calibration curves of ANA-TA9 in the plasma and the brain were determined.

Series [2] is described as follows: In vitro stability in the plasma. The class given is in vitro ADME. Particulars: rat plasma, 10 μL ANA-TA9 PBS solution (0.1 mg/mL or 1 mg/mL) added to 90 μL plasma, 37 °C, methanol deproteinization, LC/MS, three experiments. How it is done: as §1
as §2, with “The supernatant was transferred to tubes and evaporated to dryness. The residue was reconstituted with 100 μL of the mobile phase of LC/MS mentioned below.” left out
(§3) Chromatographic separation was performed using a C18 analytical column (TSKgel ODS 100V, 3 μm, 2.0 mm × 100 mm; TOSOH, Tokyo, Japan). […] ANA-TA9 eluting from the column was detected with mass spectrometry under the positive mode. […] The calibration curves of ANA-TA9 in the plasma and the brain were determined.

A short description of series [3]: in vivo. Also on record: species or system male Wistar/ST rats. The following applies: male, Wistar/ST, rat, 2 mg. How it is done: ANA-TA9 diluted in PBS was administered to the left nostril of male Wistar/ST rats (n = 3) at a dose of 2 mg (20 μL of 100 mg/mL). For the comparison, i.v. administration served as the control for i.n. administration. The same dose of ANA-TA9 ([…] of a 10 mg/mL PBS solution) was administered into the left femoral vein of 3 rats. CSF was collected 10 min after i.n. administration by cisternal puncture. An incision was made in the skin over the occipital bone, and the first layer of the muscle was cut. The sharp end of a 25-G needle connected to PE-50 tubing (1 m length) was carefully inserted into the cisterna magna. CSF was withdrawn into the tubing with a disposable syringe. Collection was terminated as soon as blood appeared in the tubing. CSF in the tubing was ejected into a ProteoSave SS 1.5 mL microtube (Sumitomo Bakelite Co., Ltd., Tokyo, Japan) and frozen at −40 °C. The CSF volumes ranged between 100 and 150 μL (n = 6). The plasma and brain concentrations of ANA-TA9 were determined by LC/MS, LC-20A, and LCMS-2020 (SHIMADZU, Kyoto, Japan). Briefly, 100 μL of the plasma were mixed with 1000 μL of methanol. […] To the dissected brain tissue, 100 μL of ice-cold purified water were added, and the mixture was homogenized under ice-cold conditions. To the homogenate, 4000 μL of ice-cold methanol were added. […] The residues were reconstituted with 100 μL of the mobile phase of the chromatography. In the preliminary study, it was confirmed that the effect of rapid degradation of ANA-TA9 on the assay could be excluded by the treatment on the blood and brain tissues mentioned above. Chromatographic separation was performed using a C18 analytical column (TSKgel ODS 100V, 3 μm, 2.0 mm × 100 mm; TOSOH, Tokyo, Japan). The mobile phase was acetonitrile/0.1% acetic acid (10/90), and the flow rate was 0.2 mL/min. ANA-TA9 eluting from the column was detected with mass spectrometry under the positive mode. Nitrogen gas was used for nebulization at a flow rate of 1.5 L/min. […] The calibration curves of ANA-TA9 in the plasma and the brain were determined.

Series [4] is described as follows: In vitro stability in the cerebrospinal fluid. The class given is in vitro ADME. Particulars: cerebrospinal fluid (CSF), rat CSF, 37 °C, LC/MS without treatment, three experiments. How it is done:
as §1
as §2, with “The supernatant was transferred to tubes and evaporated to dryness. The residue was reconstituted with 100 μL of the mobile phase of LC/MS mentioned below.” left out
as §3

The values below come from paper PMC8538057, “Direct Delivery of ANA-TA9, a Peptide Capable of Aβ Hydrolysis, to the Brain by Intranasal Administration” (Pharmaceutics, 2021).

Ends that are not written are not given here.

In the case of SKGQAYRMI [ANA-TA9], in series [1] (rat whole blood (heparinized), 10 μL ANA-TA9 solution added to 90 μL, 37 °C, time 0, LC/MS, three experiments), the “initial concentration in the whole blood” value is on record as 80 µg/mL. In series [1] (rat whole blood, 10 μL ANA-TA9 solution added to 90 μL, 37 °C, 5 min, LC/MS, three experiments), the “concentration of ANA-TA9 in the whole blood 5 min after the start of the incubation” value came out at 20 µg/mL. For the same sequence, the “initial concentration in the whole blood, % of the expected value” in series [1] (rat whole blood, time 0, LC/MS) is on record as 80%. For the same sequence, the “concentration of ANA-TA9 in the plasma at 5 min after the start of the incubation” value in series [2] came to 20 µg/mL. Further, the level at 10 min turned out to be 72 ± 6 ng/mL in series [3] (inhaled or intranasal, CSF concentration 10 min after i.n. administration); 24 ± 5 ng/mL in series [3] (inhaled or intranasal, plasma concentration 10 min after i.n. administration); 10 ± 1 ng/mL in series [3] (iv, plasma concentration 10 min after i.v. administration). In addition, the remaining at 0.5 h in series [4] (5 μL ANA-TA9 PBS solution (0.1 mg/mL or 1 mg/mL) added to 45 μL CSF, 30 min, read-out: CSF concentration remaining at 30 min after the start of the incubation) worked out at 74%. The remaining at 2 h in series [4] (5 μL ANA-TA9 PBS solution added to 45 μL CSF, 2 h, read-out: CSF concentration remaining at 2 h after the start of the incubation) came out at 46%.
